Where “and” joins values, the source holds several entries; their conditions need not be identical. Identical values can stand only once. Marks after values point to notes of the source that are not given here.
Legend:
M. tuberculosis H37Rv = test: Example 9: compound of formula I added to first and second line anti-tuberculosis drugs (survival, lung CFU after 4 weeks); type: in vivo, mice; conditions: for Mean lung log10 CFU count (±) S.D. after 4 weeks of treatment with: Regimen + U 25 mg/kg: labelled drug PLUS U 25 mg/kg; for Mean lung log10 CFU count (±) S.D. after 4 weeks of treatment with: Regimen + U 25 mg/kg / Mean lung log10 CFU count (±) S.D. after 4 weeks of treatment with: Regimen + U 100 mg/kg / Mean lung log10 CFU count (±) S.D. after 4 weeks of treatment with: Regimen alone: D0 8.36 ± 0.10; for Mean lung log10 CFU count (±) S.D. after 4 weeks of treatment with: Regimen + U 100 mg/kg: labelled drug PLUS U 100 mg/kg, lower limit of detection 3.40; for Time to 50% mortality: no treatment 21 days; for Mean lung log10 CFU count (±) S.D. after 4 weeks of treatment with: Regimen alone: H 10, R 10, Eb 100, M 100 mg, Et 50, A 150 sc, C 20 mg/kg
[1] = test system: Mycobacterium tuberculosis H37Rv; test: Example 8B: eight week dose ranging study (second phase after 4 weeks RHZU25); type: in vivo, mice; design: Lung CFU / CFU-U only: unit not given here; conditions: 8 weeks: 4 weeks RHZU25 (4.19 ± 0.26) then 4 weeks of the labelled treatment; R 10, H 25 mg/kg; untreated 5.49 ± 0.23
Description: Eighty of the mice from Group 4 (in Example 8A) that had been receiving 25 mg/kg of the compound of formula I (U) along with rifampin(R), isoniazid(H), and pyrazinamide(Z) were evaluated in the second phase of the study. They were assigned to one of the groups described below in Table 6 and the study was continued for an additional 4 weeks (i.e. 8 week results).
As described above, 5 animals served as the control and no further drugs were given. Five were given the combination of rifampin(R) and isoniazid (H), five given isoniazid (H) or rifampin(R) alone. […] Six of these groups were also dosed with rifampin (R). The rifampin and isoniazid was dosed in the same manner and in the same amount as in Example 8A.
At the conclusion of the eight (8) week experiment, all of the animals were sacrificed and CFU lung counts were obtained.

[2] = test system: Mycobacterium tuberculosis H37Rv; test: Example 8C: additional dose ranging study (4 and 8 weeks); type: in vivo, mice; conditions: lung; 4 weeks RHZU100 then 4 weeks of the labelled control regimen without U; untreated 4.91 ± 0.17
Description: The protocol described above in Example 8A and 8B was carried out on an alternative occasion. The only substantive changes were the number of animals per group and the initial incubation period.
Testing continued for an additional 4 weeks with 60 of the mice from Test Group 2 immediately above. The mice either received U alone, at varying doses, or the combination of U and R. The following results were obtained.

[3] = test system: Mycobacterium tuberculosis H37Rv; test: Example 6: in vivo activity of the combination (lung CFU after 4 and 8 weeks); design: species or system mice; conditions: for Lung log10 CFU counts (±SD) after treatment with the indicated regimen plus the compound of formula (I) 100 mg/kg/day, Day 28 / Lung log10 CFU counts (±SD) after treatment with the indicated regimen plus the compound of formula (I) 100 mg/kg/day, Day 56: labelled regimen PLUS compound of formula (I) 100 mg/kg/day, INH 25, RIF 10, PZA 150, MXF 100 mg/kg; for Lung log10 CFU counts (±SD) after treatment with the indicated regimen plus the compound of formula (I) 100 mg/kg/day, Day 28 / Lung log10 CFU counts (±SD) after treatment with the indicated regimen plus the compound of formula (I) 100 mg/kg/day, Day 56 / Lung log10 CFU counts (±SD) after treatment with the indicated regimen, Day 56 / Lung log10 CFU counts (±SD) after treatment with the indicated regimen, Day 28: Day 0 7.37 ± 0.12; for reduction in lung CFU counts from baseline over the first 28 days: monotherapy, compound of formula (I) 100, INH 25, RIF 10 mg/kg; for Lung log10 CFU counts (±SD) after treatment with the indicated regimen, Day 56 / Lung log10 CFU counts (±SD) after treatment with the indicated regimen, Day 28: regimen as labelled, INH 25, RIF 10, PZA 150, MXF 100, compound of formula (I) 100 mg/kg; for Lung log10 CFU counts (±SD) after treatment with the indicated regimen, Day 28: 100 mg/kg
[4] = test system: Mycobacterium tuberculosis H37Rv; type: in vivo, mice; conditions: 25 mg/kg

Compound	Mean lung log10 CFU count (±) S.D. after 4 weeks of treatment with: Regimen + U 25 mg/kg (M. tuberculosis H37Rv) [log10 CFU]	Mean lung log10 CFU count (±) S.D. after 4 weeks of treatment with: Regimen + U 100 mg/kg (M. tuberculosis H37Rv)	Time to 50% mortality (M. tuberculosis H37Rv) [days]	Mean lung log10 CFU count (±) S.D. after 4 weeks of treatment with: Regimen alone (M. tuberculosis H37Rv) [log10 CFU]	other results
N[C@@H]1CON=C1O [Cs, cycloserine]	7.19 ± 0.21	5.66 ± 0.11 log10 CFU	22	–	–
COc1c(N2C[C@@H]3CCCN[C@@H]3C2)c(F)cc2c(=O)c(C(=O)O)cn(C3CC3)c12 [M, moxifloxacin]	7.08 ± 0.10	5.33 ± 0.30 log10 CFU	–	6.49 ± 0.12	–
CC[C@@H](CO)NCCN[C@@H](CC)CO [Eb, ethambutol]	6.86 ± 0.16	5.50 ± 0.13 log10 CFU	30	7.41 ± 0.57	–
CC(C)/N=c1\cc2n(-c3ccc(Cl)cc3)c3ccccc3nc-2cc1Nc1ccc(Cl)cc1 [C, clofazimine]	6.25 ± 0.20	4.91 ± 0.14 log10 CFU	–	5.92 ± 0.24	–
NCC[C@H](O)C(=O)N[C@@H]1C[C@H](N)[C@@H](O[C@H]2O[C@H](CN)[C@@H](O)[C@H](O)[C@H]2O)[C@H](O)[C@H]1O[C@H]1O[C@H](CO)[C@@H](O)[C@H](N)[C@H]1O [A, amikacin]	6.78 ± 0.16	5.18 ± 0.17 log10 CFU	–	7.24 ± 0.14	–
capreomycin	6.81 ± 0.13	5.35 ± 0.17 log10 CFU	22	–	–
Nc1ccc(C(=O)O)c(O)c1 [Ps, para-aminosalicyclic acid]	6.87 ± 0.21	5.39 ± 0.32 log10 CFU	31	–	–
CO[C@H]1/C=C/O[C@@]2(C)Oc3c(C)c(O)c4c(O)c(c(/C=N/N5CCN(C)CC5)c(O)c4c3C2=O)NC(=O)/C(C)=C\C=C\[C@H](C)[C@H](O)[C@@H](C)[C@@H](O)[C@@H](C)[C@H](OC(C)=O)[C@@H]1C [RIF, rifampin]	5.91 ± 0.21	5.02 ± 0.10 log10 CFU	–	6.23 ± 0.11	Lung CFU [1]: 4.18 ± 0.55; CFU Count 8 weeks [2]: 4.16 ± 0.65; Lung log10 CFU counts (±SD) after treatment with the indicated regimen plus the compound of formula (I) 100 mg/kg/day, Day 28 [3]: 3.73 ± 0.19 log10 CFU; Lung log10 CFU counts (±SD) after treatment with the indicated regimen plus the compound of formula (I) 100 mg/kg/day, Day 56 [3]: 1.29 ± 0.22 log10 CFU; reduction in lung CFU counts from baseline over the first 28 days [3]: 1.63 log10; Lung log10 CFU counts (±SD) after treatment with the indicated regimen, Day 56 [3]: 4.65 ± 0.24 log10 CFU; Lung log10 CFU counts (±SD) after treatment with the indicated regimen, Day 28 [3]: 5.74 log10 CFU and 5.74 ± 0.17 log10 CFU
NC(=O)c1cnccn1 [Z, pyrazinamide]	4.73 ± 0.38	≦3.59*** log10 CFU	21	–	–
CCc1cc(C(N)=S)ccn1 [Et, ethionamide]	7.18 ± 0.18	5.46 ± 0.15 log10 CFU	–	7.19 ± 0.04	–
NNC(=O)c1ccncc1 [INH, isoniazid]	6.22 ± 0.06	5.79 ± 0.33 log10 CFU	–	7.01 ± 0.14	Lung CFU [1]: 4.46 ± 0.37; log kill (reduction in mean lung CFU count compared to the baseline value) ([4]; 28 days): 1.87 log10; mean spleen weight ([4]; after 28 days of treatment, pre-treatment 105±11 mg, untreated 237±16 mg): 100 ± 1 mg; Lung log10 CFU counts (±SD) after treatment with the indicated regimen plus the compound of formula (I) 100 mg/kg/day, Day 28 [3]: 4.33 ± 0.29 log10 CFU; Lung log10 CFU counts (±SD) after treatment with the indicated regimen plus the compound of formula (I) 100 mg/kg/day, Day 56 [3]: 2.87 ± 0.23 log10 CFU; reduction in lung CFU counts from baseline over the first 28 days [3]: 1.58 log10; Lung log10 CFU counts (±SD) after treatment with the indicated regimen, Day 56 [3]: 4.53 ± 0.24 log10 CFU; Lung log10 CFU counts (±SD) after treatment with the indicated regimen, Day 28 [3]: 5.79 log10 CFU and 5.79 ± 0.14 log10 CFU

Source: patent US20110190199A1, “Combination Therapy for Tuberculosis” (priority 2008, published 2011)
